Calls of active or inactive are those of the source.
Experiments:
[1] = biological target: T1, fMet-Leu-Phe receptor (Homo sapiens, UniProt P21462); assay: FPR ligands, dose response (AID 519); type: functional
T1 sequence (P21462 whole entry): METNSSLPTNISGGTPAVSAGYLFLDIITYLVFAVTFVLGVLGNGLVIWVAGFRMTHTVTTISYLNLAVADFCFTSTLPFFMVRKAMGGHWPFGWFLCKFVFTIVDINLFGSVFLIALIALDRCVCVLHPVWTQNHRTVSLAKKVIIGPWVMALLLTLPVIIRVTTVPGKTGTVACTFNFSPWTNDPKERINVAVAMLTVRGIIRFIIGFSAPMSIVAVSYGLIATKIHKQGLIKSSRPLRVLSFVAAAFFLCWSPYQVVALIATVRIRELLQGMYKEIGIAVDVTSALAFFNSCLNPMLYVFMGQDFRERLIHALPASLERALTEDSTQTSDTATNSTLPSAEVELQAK

[2] = biological target: Protein Wnt-3a (Mus musculus, UniProt P27467); assay: Wnt3a-driven reporter signaling inhibition, dose response, selectivity assay for Gli-SUFU antagonist project, Wnt-LIGHT cells, luminescence (AID 651570); type: functional; details: read-out: IC50_Mean;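 note: Wnt-LIGHT reporter cells stimulated with conditioned medium from Wnt3a-producing cells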
Sequence of Protein Wnt-3a (P27467 whole entry, the tested form may be a part): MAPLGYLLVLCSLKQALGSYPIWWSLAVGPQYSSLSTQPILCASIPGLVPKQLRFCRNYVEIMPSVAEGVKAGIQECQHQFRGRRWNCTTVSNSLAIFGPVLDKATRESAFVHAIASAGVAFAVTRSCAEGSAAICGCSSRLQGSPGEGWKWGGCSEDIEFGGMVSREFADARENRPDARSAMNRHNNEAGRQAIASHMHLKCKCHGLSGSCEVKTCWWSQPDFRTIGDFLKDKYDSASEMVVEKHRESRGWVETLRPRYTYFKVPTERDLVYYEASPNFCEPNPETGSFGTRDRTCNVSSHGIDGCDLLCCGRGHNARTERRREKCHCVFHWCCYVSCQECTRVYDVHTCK

[3] = biological target: T2, RNA-binding protein pos-1 (Caenorhabditis elegans, UniProt G5EF15); assay: inhibitors of POS-1/mex-3 RNA binding, dose response, biochemical, fluorescence polarization (AID 1964);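 note: purified POS-1 fused to maltose binding protein made in E. coli; potency of compounds blocking POS-1 binding to fluorescent RNA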
T2 sequence (G5EF15 whole entry): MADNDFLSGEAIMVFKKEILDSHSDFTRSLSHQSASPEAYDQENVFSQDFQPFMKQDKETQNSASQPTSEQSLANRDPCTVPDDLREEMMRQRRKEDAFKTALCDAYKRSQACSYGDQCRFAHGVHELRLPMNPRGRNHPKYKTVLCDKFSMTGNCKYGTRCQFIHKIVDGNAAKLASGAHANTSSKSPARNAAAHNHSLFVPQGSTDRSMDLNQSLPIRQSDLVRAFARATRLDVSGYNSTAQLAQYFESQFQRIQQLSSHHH

[4] = biological target: T3, Zinc finger protein mex-5 (Caenorhabditis elegans, UniProt Q9XUB2); assay: MEX-5/TCR-2 RNA interaction inhibitors, dose response, biochemical, C. elegans, fluorescence polarization (AID 1960)
T3 sequence (Q9XUB2 whole entry): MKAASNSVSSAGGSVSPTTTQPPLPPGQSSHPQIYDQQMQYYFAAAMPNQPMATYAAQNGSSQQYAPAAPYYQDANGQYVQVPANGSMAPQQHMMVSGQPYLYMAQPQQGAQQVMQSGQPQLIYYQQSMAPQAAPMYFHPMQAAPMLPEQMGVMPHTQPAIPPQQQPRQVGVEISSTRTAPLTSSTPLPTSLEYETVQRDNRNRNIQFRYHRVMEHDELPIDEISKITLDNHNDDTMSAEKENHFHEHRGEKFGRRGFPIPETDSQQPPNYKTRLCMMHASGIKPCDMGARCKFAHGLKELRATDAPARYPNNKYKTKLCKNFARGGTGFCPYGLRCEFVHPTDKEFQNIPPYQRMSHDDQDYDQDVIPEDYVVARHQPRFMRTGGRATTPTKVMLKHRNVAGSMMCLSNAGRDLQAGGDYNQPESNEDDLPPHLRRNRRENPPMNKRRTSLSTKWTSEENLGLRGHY

[5] = biological target: T4, Sentrin-specific protease 1 (Homo sapiens, UniProt Q9P0U3); assay: Dose response confirmation of small molecule inhibitors of the catalytic domain of the SUMO protease, SENP1 in a FRET assay.; type: functional; details: read-out: IC50_Mean
T4 sequence (Q9P0U3 whole entry): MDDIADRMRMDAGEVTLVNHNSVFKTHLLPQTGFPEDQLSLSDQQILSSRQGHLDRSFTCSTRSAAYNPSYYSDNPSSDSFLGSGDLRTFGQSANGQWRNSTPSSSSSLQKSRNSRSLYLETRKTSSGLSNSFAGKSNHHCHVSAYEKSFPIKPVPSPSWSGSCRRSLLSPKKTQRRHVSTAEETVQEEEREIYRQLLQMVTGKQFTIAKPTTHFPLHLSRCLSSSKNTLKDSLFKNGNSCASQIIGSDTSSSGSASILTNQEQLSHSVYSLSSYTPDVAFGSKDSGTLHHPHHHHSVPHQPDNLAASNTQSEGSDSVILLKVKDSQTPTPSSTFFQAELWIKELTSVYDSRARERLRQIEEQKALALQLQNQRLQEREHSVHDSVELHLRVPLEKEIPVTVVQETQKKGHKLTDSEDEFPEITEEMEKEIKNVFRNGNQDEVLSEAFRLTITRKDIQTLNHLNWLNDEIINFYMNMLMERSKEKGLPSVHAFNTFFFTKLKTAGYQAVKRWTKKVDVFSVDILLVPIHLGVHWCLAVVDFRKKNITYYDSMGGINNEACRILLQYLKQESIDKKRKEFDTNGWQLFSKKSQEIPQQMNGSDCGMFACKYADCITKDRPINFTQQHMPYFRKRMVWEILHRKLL

[6] = biological target: T5, Oxysterols receptor LXR-beta (Homo sapiens, UniProt P55055); type: functional, cell-based;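 note: agonist activity at LXR measured by a cell-based luminescence readout across a dose range, run as a counterscreen for daf-12 agonists; HEK293 cells with Gal4-LXR fusion and GAL4-driven luciferase reporter; potency for activation of Gal4-LXR reporter so compounds are agonists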
T5 sequence (P55055 whole entry): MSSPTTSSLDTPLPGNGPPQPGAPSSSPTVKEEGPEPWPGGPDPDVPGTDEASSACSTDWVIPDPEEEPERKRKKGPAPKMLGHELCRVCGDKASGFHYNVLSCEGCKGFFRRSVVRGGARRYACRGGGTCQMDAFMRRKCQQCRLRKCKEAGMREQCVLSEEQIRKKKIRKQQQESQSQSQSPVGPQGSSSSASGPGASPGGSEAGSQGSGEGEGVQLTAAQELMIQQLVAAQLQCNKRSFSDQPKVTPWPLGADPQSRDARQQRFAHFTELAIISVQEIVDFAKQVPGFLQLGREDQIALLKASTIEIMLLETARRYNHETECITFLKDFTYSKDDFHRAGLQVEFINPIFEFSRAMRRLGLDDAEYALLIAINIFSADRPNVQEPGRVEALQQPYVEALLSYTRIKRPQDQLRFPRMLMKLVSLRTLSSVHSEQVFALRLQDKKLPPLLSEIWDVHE

[7] = biological target: Beta-galactosidase (Escherichia coli, UniProt Q8VNN2); assay: Dose response counterscreen for EBI2 assay utilizing the enzyme, b-galactosidase.; type: functional
Sequence of Beta-galactosidase (Q8VNN2 whole entry, the tested form may be a part): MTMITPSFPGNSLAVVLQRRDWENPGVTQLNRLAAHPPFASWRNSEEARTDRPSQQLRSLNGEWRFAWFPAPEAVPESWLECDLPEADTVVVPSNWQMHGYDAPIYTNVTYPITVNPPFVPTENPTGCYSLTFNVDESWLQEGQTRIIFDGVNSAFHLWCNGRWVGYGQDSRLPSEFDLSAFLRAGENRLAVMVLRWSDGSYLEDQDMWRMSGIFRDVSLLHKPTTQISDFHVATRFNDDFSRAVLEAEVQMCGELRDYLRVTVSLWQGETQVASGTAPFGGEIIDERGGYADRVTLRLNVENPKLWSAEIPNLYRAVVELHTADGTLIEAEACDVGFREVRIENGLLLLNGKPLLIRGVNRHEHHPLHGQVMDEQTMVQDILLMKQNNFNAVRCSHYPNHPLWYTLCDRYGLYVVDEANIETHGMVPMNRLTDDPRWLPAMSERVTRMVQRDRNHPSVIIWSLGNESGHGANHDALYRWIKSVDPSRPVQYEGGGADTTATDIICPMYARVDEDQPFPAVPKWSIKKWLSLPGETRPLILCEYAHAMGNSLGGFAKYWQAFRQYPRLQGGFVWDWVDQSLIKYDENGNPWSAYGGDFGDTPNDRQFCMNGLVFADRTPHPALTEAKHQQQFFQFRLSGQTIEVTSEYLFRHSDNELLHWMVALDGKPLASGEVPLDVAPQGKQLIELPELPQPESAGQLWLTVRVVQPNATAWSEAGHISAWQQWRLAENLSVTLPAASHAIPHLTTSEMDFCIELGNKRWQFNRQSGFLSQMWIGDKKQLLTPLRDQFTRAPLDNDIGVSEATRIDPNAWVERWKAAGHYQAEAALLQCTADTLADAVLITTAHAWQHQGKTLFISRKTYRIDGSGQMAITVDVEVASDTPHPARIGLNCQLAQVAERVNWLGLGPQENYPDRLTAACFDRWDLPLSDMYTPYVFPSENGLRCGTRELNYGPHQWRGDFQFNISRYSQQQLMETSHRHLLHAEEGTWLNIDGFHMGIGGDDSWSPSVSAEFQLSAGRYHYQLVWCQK

[8] = biological target: T6, Hepatocyte nuclear factor 4-alpha (Homo sapiens, UniProt P41235); type: functional, cell-based;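 note: biochemical luminescence-based dose-response counterscreen measuring inhibition of HNF4 dimerization, run alongside a screen for blockers of ABHD5–perilipin-5 interaction; split luciferase complementation of HNF4 fusion proteins in cell lysate measuring dimerization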
T6 sequence (P41235 whole entry): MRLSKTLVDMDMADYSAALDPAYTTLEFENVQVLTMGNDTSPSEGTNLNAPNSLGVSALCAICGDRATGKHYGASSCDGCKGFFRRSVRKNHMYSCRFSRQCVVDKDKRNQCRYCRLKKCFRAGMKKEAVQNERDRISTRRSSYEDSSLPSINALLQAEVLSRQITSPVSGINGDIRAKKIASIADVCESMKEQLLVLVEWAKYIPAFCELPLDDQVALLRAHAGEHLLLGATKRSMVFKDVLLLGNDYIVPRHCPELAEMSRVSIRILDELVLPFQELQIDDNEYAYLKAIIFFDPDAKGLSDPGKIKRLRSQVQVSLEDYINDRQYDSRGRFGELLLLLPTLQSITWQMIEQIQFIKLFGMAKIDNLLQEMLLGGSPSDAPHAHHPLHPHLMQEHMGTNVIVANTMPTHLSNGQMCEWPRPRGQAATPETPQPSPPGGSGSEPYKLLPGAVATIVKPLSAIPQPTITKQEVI

[9] = miR-122 activators in hepatoma reporter cells, dose response, cell-based, Huh7 psiCHECK-miR122, Renilla luciferase, cherry-picked (AID 651956); type: functional;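 note: huh7 hepatoma cells stably carrying a psiCHECK-2 miR-122 sensor plasmid; renilla luciferase signal reporting endogenous miR-122 activity after 48 h compound exposure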
[10] = biological target: Disintegrin and metalloproteinase domain-containing protein 17 (Homo sapiens, UniProt P78536); assay: ADAM17 protease inhibitors, dose response, counter-screen for ADAM10 exosite inhibitor project, biochemical, quenched FRET substrate (AID 743253)
Sequence of Disintegrin and metalloproteinase domain-containing protein 17 (P78536 whole entry, the tested form may be a part): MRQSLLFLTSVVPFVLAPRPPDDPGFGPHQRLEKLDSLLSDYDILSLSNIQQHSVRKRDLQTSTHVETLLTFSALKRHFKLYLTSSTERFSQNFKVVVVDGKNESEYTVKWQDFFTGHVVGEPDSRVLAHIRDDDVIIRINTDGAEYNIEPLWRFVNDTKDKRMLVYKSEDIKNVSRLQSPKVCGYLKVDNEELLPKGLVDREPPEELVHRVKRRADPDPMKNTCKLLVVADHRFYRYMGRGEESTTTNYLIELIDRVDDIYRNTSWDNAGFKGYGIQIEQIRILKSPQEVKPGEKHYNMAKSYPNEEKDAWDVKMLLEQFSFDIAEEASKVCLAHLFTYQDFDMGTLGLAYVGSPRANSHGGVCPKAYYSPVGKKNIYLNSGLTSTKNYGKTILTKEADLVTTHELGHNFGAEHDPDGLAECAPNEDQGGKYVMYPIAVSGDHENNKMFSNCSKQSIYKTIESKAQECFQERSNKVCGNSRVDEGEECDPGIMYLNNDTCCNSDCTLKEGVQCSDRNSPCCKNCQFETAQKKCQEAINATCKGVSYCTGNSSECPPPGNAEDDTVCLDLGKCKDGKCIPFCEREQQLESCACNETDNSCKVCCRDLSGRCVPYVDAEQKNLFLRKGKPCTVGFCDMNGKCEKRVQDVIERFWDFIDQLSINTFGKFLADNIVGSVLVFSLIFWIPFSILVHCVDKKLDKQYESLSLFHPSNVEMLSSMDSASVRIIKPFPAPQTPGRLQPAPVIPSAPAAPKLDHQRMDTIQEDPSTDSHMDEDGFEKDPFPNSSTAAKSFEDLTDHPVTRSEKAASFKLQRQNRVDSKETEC

[11] = A549 cell cytotoxicity, dose response, cytotoxicity control, plate reader, cherry-pick, antagonist series (AID 743412); type: functional, cell-based
[12] = LGR2 antagonists, dose response, cell-based, HEK293, CRE-luciferase reporter, cherry pick, set 2 (AID 743343); type: functional;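 note: transfected cells were stimulated with diluted bursicon conditioned medium after compound addition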
[13] = MC4R antagonists, dose response, counter-screen for LGR2 antagonist project, cell-based, plate reader, cherry pick (AID 743444); type: functional;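 note: transfected HEK 293 cells stimulated with alpha-MSH peptide; potency of inhibitors of the alpha-MSH evoked signal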
[14] = HEK293 cell cytotoxicity, dose response, cytotoxicity control, plate reader, cherry-picked samples (AID 743446); type: functional, cell-based
[15] = inhibitors of firefly luciferase expression or activity, dose response, H4 neuroglioma cells, luminescence (AID 1990); type: functional, cell-based
[16] = Luminescence Cell-Based Dose Response HTS to Identify Inhibitors of 5'UTR Stem-Loop Driven Prion Protein mRNA Translation in H4 Neuroglioblastoma Cells. [Related pubchem assays: 1827 (Project Summary), 1813 (Primary HTS)]; type: functional
[17] = inhibitors of SNCA 5'UTR-driven reporter translation, confirmation, H4 neuroglioma cells, luminescence (AID 1988); type: functional, cell-based
[18] = biological target: T7, Ubiquitin-conjugating enzyme E2 N (Homo sapiens, UniProt P61088); type: functional;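 note: Dose-response confirmation in a TR-FRET assay detecting UBC13-driven polyubiquitin chain formation, inhibition measured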
T7 sequence (P61088 whole entry): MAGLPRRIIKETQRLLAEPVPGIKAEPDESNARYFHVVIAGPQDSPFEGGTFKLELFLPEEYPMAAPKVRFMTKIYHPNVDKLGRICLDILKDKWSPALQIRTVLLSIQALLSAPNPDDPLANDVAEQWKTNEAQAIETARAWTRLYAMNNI

[19] = biological target: Paired box protein Pax-8 (Homo sapiens, UniProt Q06710); assay: inhibitors of PAX8-driven TPO luciferase reporter, dose response, RMG-I cells, cherry-pick (AID 687027); type: functional, cell-based;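 note: luciferase reporter driven by Pax8 target thyroperoxidase promoter measured by SteadyGlo luminescence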
Sequence of Paired box protein Pax-8 (Q06710 whole entry): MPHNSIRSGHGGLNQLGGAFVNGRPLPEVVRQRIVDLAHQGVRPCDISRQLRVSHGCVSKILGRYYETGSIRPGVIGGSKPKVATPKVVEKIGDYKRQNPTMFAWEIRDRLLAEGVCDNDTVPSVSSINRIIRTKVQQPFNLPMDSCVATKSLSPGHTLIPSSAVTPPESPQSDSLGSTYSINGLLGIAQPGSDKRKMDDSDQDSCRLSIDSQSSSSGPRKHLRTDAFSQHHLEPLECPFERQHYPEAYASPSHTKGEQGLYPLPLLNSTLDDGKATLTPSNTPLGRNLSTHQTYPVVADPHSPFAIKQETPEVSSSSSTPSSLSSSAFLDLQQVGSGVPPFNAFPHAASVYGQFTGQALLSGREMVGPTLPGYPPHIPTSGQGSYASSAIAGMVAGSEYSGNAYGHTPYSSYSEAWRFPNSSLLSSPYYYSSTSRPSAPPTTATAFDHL

[20] = non-specific cell cytotoxicity, dose response, cytotoxicity control for PAX8 inhibitor project, plate reader, dry powder samples (AID 743021); type: functional, cell-based
[21] = biological target: T8, Long-chain-fatty-acid--AMP ligase FadD28 (Mycobacterium tuberculosis, UniProt P9WQ59); assay: Fluorescence polarization aasay to screen for inhibitors that compete for the binding of FadD28 to a bisubstrate Measured in Biochemical System Using Plate Reader - 2147-01_Inhibitor_Dose_CherryPick_Activity.; type: functional, Mycobacterium tuberculosis H37Rv
T8 sequence (P9WQ59 whole entry): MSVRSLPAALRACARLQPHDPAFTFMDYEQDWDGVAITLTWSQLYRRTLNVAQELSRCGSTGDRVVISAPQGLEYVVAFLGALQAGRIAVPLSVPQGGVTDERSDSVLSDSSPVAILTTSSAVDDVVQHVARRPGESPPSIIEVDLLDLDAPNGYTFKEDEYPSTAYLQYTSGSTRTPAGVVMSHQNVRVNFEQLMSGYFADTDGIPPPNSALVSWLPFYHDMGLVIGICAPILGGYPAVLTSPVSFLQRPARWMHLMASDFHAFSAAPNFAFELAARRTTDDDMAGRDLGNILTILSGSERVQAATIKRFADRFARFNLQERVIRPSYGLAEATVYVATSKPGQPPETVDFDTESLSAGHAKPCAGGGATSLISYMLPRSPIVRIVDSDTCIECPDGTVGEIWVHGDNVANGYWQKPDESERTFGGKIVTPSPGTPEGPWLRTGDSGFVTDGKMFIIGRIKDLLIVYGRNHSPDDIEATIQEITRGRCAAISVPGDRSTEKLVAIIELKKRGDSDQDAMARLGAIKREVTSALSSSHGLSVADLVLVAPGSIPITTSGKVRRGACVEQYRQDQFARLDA

Compound: COC(=O)c1[nH]c(C)c(C(=O)C2=C(O)C(=O)N(CCN3CCOCC3)C2c2cccnc2)c1C (configuration not stated)
- Ki [1]: 20.8 µM (inactive)

Compound: O=C(N[C@@H]1C/C=C\C[C@@H](CC(=O)N(CCO)Cc2ccccc2)C(=O)N[C@@H](c2ccccc2)COC1=O)OCC1c2ccccc2-c2ccccc21
- IC50 [2]: 12.3 µM (active)

Compound: O=C(c1ccccc1)[C@@H]1[C@@H]2C(=O)N(c3ccc(F)cc3)C(=O)[C@@H]2C2CCCN21 (some centres not stated)
- EC50 [3]: 37.9 µM (active)
- EC50 [4]: 40.9 µM (active)
- IC50 [5]: 7.78 µM (active)

Compound: CC[n+]1ccn(C)c1P(c1ccccc1)c1ccccc1
- IC50 [2]: 6.99 µM (active)

Compound: c1ccc(CCSc2nccn2-c2ccccc2)cc1
- EC50 [6]: > 67.6 µM (inactive)

Compound: Cc1occc1-c1nnc(SCC(=O)NCCc2ccccc2)n1Cc1ccccc1
- IC50 [7]: > 80 µM (inactive)

Compound: CC(=Nc1ccc(Cl)cc1N)c1c(O)cc(C)oc1=O
- EC50 [6]: > 67.6 µM (inactive)

Compound: O=C(C1=C(O)C(=O)N(c2ncccn2)C1c1ccc(Cl)c(Cl)c1)c1ccco1 (configuration not stated)
- Ki [1]: > 66.7 µM (inactive)

Compound: CCC(C(=O)OCCN(CC)CC)c1ccccc1 (configuration not stated)
- IC50 [8]: 23.9 µM (inactive)

Compound: CCS(=O)(=O)Nc1ccc2c(c1)C(=O)N(C)C[C@@H](OC)[C@H](C)CN(CC1CCCC1)[C@H](C)CO2
- AC50 [9]: 23.6 µM (active)

Compound: Cc1cccc(C)c1NC(=O)C(c1ccccc1)n1c(=O)c(-c2ccco2)nc2ccccc21 (configuration not stated)
- IC50 [8]: 3.81 µM (active)

Compound: COc1ccc(-c2ccc(-c3noc(-c4cccc(OC)c4)n3)c(OC)n2)cc1
- IC50 [10]: > 69.5 µM (inactive)

Compound: Cc1cccc(-c2ccc([C@H]3[C@@H](CO)N4CCCCN(C(=O)c5ccncc5)C[C@@H]34)cc2)c1
- AC50 [11]: > 52 µM (inactive)
- AC50 [12]: 8.82 µM (active)
- AC50 [13]: 9.6 µM (active)
- AC50 [14]: > 52 µM (inactive)

Compound: CC(C)(C)NC(=O)C(c1cccc2ccccc12)n1c(=O)c(-c2ccco2)nc2ccccc21 (configuration not stated)
- IC50 [8]: 2.27 µM (active)

Compound: CCC[C@H](CN[C@@H](CNC)[C@H](C)CC)NCCc1cc(C(F)(F)F)cc(C(F)(F)F)c1
- EC50 [15]: 8.3 µM (active)
- EC50 [16]: 9.67 µM (active)
- EC50 [17]: 7.09 µM (active)
- IC50 [18]: > 20 µM (inactive)
- AC50 [19]: 9.95 µM (active)
- AC50 [20]: 22.1 µM (active)

Compound: CN(C)CCNc1ncnc2c1ncn2[C@H]1CN(Cc2cccnc2)C[C@@H](CO)O1
- EC50 [6]: > 67.5 µM (inactive)

Compound: O=C(N/N=C/c1c[nH]c2ccccc12)c1cc(Cl)ccc1O
- AC50 [21]: 9.8 µM (active)

Reference: ChEMBL document CHEMBL1201862, “PubChem BioAssay data set” (2004)
